Source: US11147272B2, “Pyridone compounds and agricultural and horticultural fungicides comprising the same as active ingredients” (MITSUI CHEMICALS AGRO, INC., priority 2017, dated 2021)

Experiments:
Magnaporthe grisea = assay: whole plant or invertebrate; type: in vivo; settings: Blast on rice; control value class
Alternaia brassicicola = assay: Test Example C: Alternaria sooty spot on cabbage; type: in vivo; settings: Alternaria sooty spot on cabbage; control value class
Source text: Seeds of a test plant (cabbage variety: Shikidori) were planted and cultivated until the cotyledons extended.
<Control Value> Control value=100{1−(n/3)}

Puccinia recondita = assay: Test Example E: Brown rust on wheat; type: in vivo; settings: Brown rust on wheat; control value class
Phytophthora infestans = assay: whole plant or invertebrate; type: in vivo; settings: Late blight on tomato; control value class
Botrytis cinerea = assay: Test Example B: Gray mold on tomato; settings: Gray mold on tomato; control value class
Plasmopara viticola = assay: Test Example G: Downy mildew on vine; settings: Downy mildew on vine; 250 ppm spray, 7 to 10 days after inoculation
[1] = system: Colletotrichum orbiculare; assay: Test Example H: Anthracnose on cucumber; settings: Anthracnose on cucumber; 250 ppm spray, 6 to 10 days after inoculation
[2] = system: Blumeria graminis f. sp. hordei; assay: Test Example D: Powdery mildew on barley; settings: Powdery mildew on barley; control value class

SMILES	Test A control value (Magnaporthe grisea)	Test C control value (Alternaia brassicicola)	Test E control value (Puccinia recondita)	Test F control value (Phytophthora infestans)	Test B control value (Botrytis cinerea)	Test G control value (Plasmopara viticola)	Test H control value [1]	Test D control value [2]
CC(C)CC1=C(c2c(F)cc(F)cc2F)N(CC(F)F)C(=O)CC1 [compound 296]	L (50% or less control value)	H (more than 50% control value)	H (more than 50% control value)	L (50% or less control value)	L (50% or less control value)	L (50% or less control value)	L (50% or less control value)	L (50% or less control value)
CC(C)Cc1ccc(=O)n(CC(F)F)c1-c1c(F)cc(F)cc1F [compound 297]	L (50% or less control value)	H (more than 50% control value)	H (more than 50% control value)	L (50% or less control value)	H (more than 50% control value)	H (more than 50% control value)	L (50% or less control value)	H (more than 50% control value)
CCn1c(-c2ccc(F)cc2Cl)c(CC=O)cc(Cl)c1=O [compound 298]	L (50% or less control value)	H (more than 50% control value)	L (50% or less control value)	L (50% or less control value)	L (50% or less control value)	L (50% or less control value)	H (more than 50% control value)	L (50% or less control value)
CC=Cc1cc(Cl)c(=O)n(CC)c1-c1ccc(F)cc1Cl [compound 299]	L (50% or less control value)	H (more than 50% control value)	H (more than 50% control value)	L (50% or less control value)	H (more than 50% control value)	H (more than 50% control value)	H (more than 50% control value)	H (more than 50% control value)
CCn1c(-c2ccc(F)cc2Cl)c(C=C(Br)Br)cc(Cl)c1=O [compound 301]	H (more than 50% control value)	H (more than 50% control value)	H (more than 50% control value)	L (50% or less control value)	H (more than 50% control value)	L (50% or less control value)	H (more than 50% control value)	H (more than 50% control value)
C#Cc1cc(Cl)c(=O)n(CC)c1-c1ccc(F)cc1Cl [compound 302]	H (more than 50% control value)	L (50% or less control value)	H (more than 50% control value)	L (50% or less control value)	H (more than 50% control value)	L (50% or less control value)	H (more than 50% control value)	L (50% or less control value)
C#Cc1cc(Cl)c(=O)n(CC)c1-c1c(F)cc(F)cc1F [compound 303]	L (50% or less control value)	H (more than 50% control value)	H (more than 50% control value)	L (50% or less control value)	H (more than 50% control value)	L (50% or less control value)	H (more than 50% control value)	H (more than 50% control value)
CC(C)Cc1cc(Cl)c(=O)n(CC(F)F)c1-c1c(F)cc(F)cc1F [compound 304]	H (more than 50% control value)	H (more than 50% control value)	H (more than 50% control value)	L (50% or less control value)	H (more than 50% control value)	L (50% or less control value)	H (more than 50% control value)	H (more than 50% control value)
CC(C)Cc1cc(Br)c(=O)n(CC(F)F)c1-c1c(F)cc(F)cc1F [compound 305]	H (more than 50% control value)	H (more than 50% control value)	H (more than 50% control value)	L (50% or less control value)	H (more than 50% control value)	L (50% or less control value)	H (more than 50% control value)	H (more than 50% control value)
CCn1c(-c2c(F)cc(F)cc2F)c(CC(C)C)cc(C)c1=O [compound 306]	H (more than 50% control value)	H (more than 50% control value)	H (more than 50% control value)	L (50% or less control value)	H (more than 50% control value)	H (more than 50% control value)	H (more than 50% control value)	H (more than 50% control value)
Cc1cc(CC(C)C)c(-c2c(F)cc(F)cc2F)n(CC(F)F)c1=O [compound 307]	L (50% or less control value)	H (more than 50% control value)	H (more than 50% control value)	L (50% or less control value)	H (more than 50% control value)	L (50% or less control value)	H (more than 50% control value)	H (more than 50% control value)
CCn1c(-c2c(F)cc(F)cc2F)c(COc2ccccc2)cc(Cl)c1=O [compound 308]	H (more than 50% control value)	H (more than 50% control value)	L (50% or less control value)	L (50% or less control value)	L (50% or less control value)	L (50% or less control value)	L (50% or less control value)	L (50% or less control value)
CCn1c(-c2c(F)cc(F)cc2F)c(C(Cl)=CCl)cc(Cl)c1=O [compound 309]	H (more than 50% control value)	H (more than 50% control value)	H (more than 50% control value)	L (50% or less control value)	H (more than 50% control value)	H (more than 50% control value)	H (more than 50% control value)	H (more than 50% control value)
CCn1c(-c2c(F)cc(F)cc2F)c(COc2ccc(OC)cc2)cc(Cl)c1=O [compound 310]	L (50% or less control value)	H (more than 50% control value)	H (more than 50% control value)	L (50% or less control value)	H (more than 50% control value)	H (more than 50% control value)	L (50% or less control value)	L (50% or less control value)
CCn1c(-c2c(F)cc(F)cc2F)c(COc2ccc(Cl)cc2)cc(Cl)c1=O [compound 311]	L (50% or less control value)	L (50% or less control value)	H (more than 50% control value)	L (50% or less control value)	L (50% or less control value)	L (50% or less control value)	L (50% or less control value)	L (50% or less control value)
CCC1=C(c2ccc(F)cc2Cl)N(C)C(=O)CC1 [compound 312]	L (50% or less control value)	H (more than 50% control value)	L (50% or less control value)	L (50% or less control value)	L (50% or less control value)	L (50% or less control value)	L (50% or less control value)	L (50% or less control value)
CCC1=C(c2ccc(F)cc2Cl)N(C)C(=S)CC1 [compound 313]	L (50% or less control value)	L (50% or less control value)	L (50% or less control value)	L (50% or less control value)	L (50% or less control value)	H (more than 50% control value)	L (50% or less control value)	L (50% or less control value)
